Results on 9 molecules are retold here after patent US6429212B1, “Medicinal composition” (Ishihara Sangyo Kaisha Ltd., priority 1996, dated 2002).

In assay [1] the test system is TNF-α production or secretion by human leukemia cells HL-60 (Okadaic acid stimulation). The assay can be described thus: Influence on TNF-α production or secretion by HL-60 cells stimulated by Okadaic acid (ELISA of supernatant). The class given is cell-based. The conditions noted are these: for amount of TNF-α in the supernatant, Okadaic acid alone = 100%: HL-60, Okadaic acid 50 nM, 16 hours (Table 8); for amount of TNF-α, Okadaic acid alone = 100%: HL-60, Okadaic acid stimulation (Table 14). As to the method:
(§1) Human leukemia cells HL-60 produce tumor necrosis factor (TNF-α) by stimulation of Okadaic acid (9,10-Deepithio-9,10-didehydroacanthifolicin) or 12O-tetradecanoyl phorbol-13-acetate (TPA). Influences of the compounds of the present invention to production or secretion of TNF-α by them were observed.
Human leukemia cells (HL-60) were cultured by using a RPMI 1640 culture medium (including 5% fetal bovine serum), in a carbonic acid gas incubator (5% CO2, humidified, 37° C.). Then, the cells were pre-cultured in a RPMI 1640 culture medium (including 10% fetal bovine serum). Okadaic acid was added thereto, so that the final concentration was 50 nM based on the HL-60 cells (5×10^5 cells/ml) in an exponentially growing stage. Then, the compound of the present invention was added thereto so that the predetermined concentration could be obtained, to prepare a cell suspension, which was then cultured in a carbonic acid gas incubator (5% CO2, humidified, 37° C.). In this culture, a multiplate having 24 holes (produced by Corning) was used, and the cell suspension was injected in an amount of 0.5 ml per hole, to culture the cells.
16 hours after the culture started, the cells were removed by centrifugation (1000-2000 rpm×10 min), and the amount of TNF-α in the supernatant was measured in accordance with the method of Amersham, by using human TNF-α ELISA system (produced by Amersham).
The values in the Table are values obtained by supposing the amount of TNF-αin the supernatant of the culture medium when treated only with Okadaic acid having a final concentration of 50 nM, 100%.
Influences of the compounds of the present invention to production or secretion of TNF-α by Okadaic acid stimulation were observed, in the same manner as in Test Example 1.
A general note: In an ELISA, binding on a coated surface is turned into a signal by an enzyme label.

In assay [2] the test system is angiogenesis under skin of mice. The assay can be described thus: Angiogenesis under skin of mice (b-FGF matrigel, amount of hemoglobin). In kind it is in vivo, BALB/c male mice. Also on record: key to Amount of hemoglobin, value in parentheses (Control = 100): % of control (control = 100), hemoglobin per matrigel. The procedure:
By subcutaneously injecting a mixture having recombinant human fibroblast growth factor-basic added to matrigel, to the back of a mice, angiogenesis occurs under skin of the mice. By measuring the amount of hemoglobin in matrigel, angiogenesis can be quantified. Influences of the compounds of the present invention to angiogenesis were observed.
Matrigel (trademark; basement membrane matrix, phenol is not included, purchased from Becton Dickinson Labware) was added to Dulbecco's modified Eagle's medium (purchased from Sigma), so that the concentration was 9 mg/ml. Recombinant Human Fibroblast Growth Factor-basic (b-FGF, produced by Intergen) was added thereto, so that the concentration was 2 μg/700 μl. The mixture was subcutaneously injected to 6-week BALB/c male mice (Charles River Japan Inc.) in an amount of 700 μl per mouse. Everyday after matrigel injection, a suspension having the compound of the present invention added to 0.8% Tween 80 (purchased from Nacalai Tesque), so that the predetermined concentration could be obtained, was intraperitoneally injected to the mice. 8 days after matrigel injection, matrigel was taken out from the mice, which was then placed in 200 μl of 1% NH4OH at room temperature for 4 hours, to extract hemoglobin. The extraction and matrigel together were subjected to centrifugal separation (10000 rpm, 5 min). 100 μl of the obtained supernatant and 500 μl of Drabkin's reagent (purchased from Sigma) were mixed and left at room temperature. After left more than 15 minutes, absorbance of the supernatant at a wavelength of 540 nm was measured by using a spectrophotometer SPECTRA max 250 (produced by Molecular Devices). The amount of hemoglobin in the supernatant was obtained from the standard curve prepared by using hemoglobin standard (purchased from Sigma), and the amount of hemoglobin per matrigel obtained from a mouse was calculated.
The amount of the hemoglobin in each treatment fraction was corrected by the amount of hemoglobin wherein matrigel having no b-FGF added was injected to the mice, and 0.8% Tween 80 as a solvent alone was injected everyday.
Influences of the compounds of the present invention to angiogenesis under skin of mice were observed, in the same manner as in Test Example 8.

For assay [3], the system named is TNF-α production or secretion by human leukemia cells HL-60 (TPA stimulation). The assay can be described thus: Influence on TNF-α production or secretion by HL-60 cells stimulated by TPA (ELISA of supernatant). In kind it is cell-based. The conditions noted are these: HL-60, TPA 10 nM; for amount of TNF-α in the supernatant, TPA alone = 100%: 16 hours (Table 9); for Amount of TNF (%), TPA alone = 100%: compound 10 μM, 16 hours (Test Example 3). As to the method: as §1
The same operation was carried out as in Test Example 1, except that TPA (produced by Sigma) having a final concentration of 10 nM was used, instead of Okadaic acid having a final concentration of 50 nM.
The values in the Table are values obtained by supposing the amount of TNF-α in the supernatant of the culture medium when treated only with TPA having a final concentration of 10 nM, 100%.
Human leukemia cells (HL-60) produce tumor necrosis factor (TNF-α) by stimulation of 12O-tetradecanoyl phorbol-13-acetate (TPA). The influences of the compounds of the present invention to production of TNF-αby it were observed.
Human leukemia cells (HL-60) were cultured by using a RPMI 1640 culture medium (including 5% fetal bovine serum), in a carbonic acid gas incubator (5% CO2, humidified, 37° C.). Then, the cells were pre-cultured in a RPMI 1640 culture medium (including 10% fetal bovine serum). TPA was added thereto, so that the final concentration was 10 nM based on the HL-60 cells (5×10^5 cells/ml) in an exponentially growing stage. Then, the compound of the present invention was added thereto so that the predetermined concentration could be obtained, to prepare a cell suspension, which was then cultured in a carbonic gas incubator (5% CO2, humidified, 37° C.). In this culture, a multiplate having 24 holes (produced by Corning) was used, and the cell suspension was injected in an amount of 0.5 ml per hole, to culture the cells.
16 hours after the culture started, the cells were removed by centrifugation(1000-2000 rpm×10 min), and the amount of TNF-α in the supernatant was measured in accordance with the method of Amersham, by using human TNF-α ELISA system (produced by Amersham).
The values are obtained by supposing the amount of TNF-α when treated only with TPA having a final concentration of 10 nM, 100%.
The influences of the compounds of the present invention to production or secretion of TNF-α by TPA stimulation were observed, in the same manner as in Test Example 2.

Where [4] appears, read: 5 mg/kg, experiment (b) (Table 15).
Setting [5] is: 5 mg/kg, experiment (b), Control 83.3 (Table 15).

Consider `C[C@H](c1ccccc1)N1C(=O)c2c(F)c(F)c(F)c(F)c2C1=O` [Compound 18, (R)-2-(1-phenylethyl)-4,5,6,7-tetrafluoro-1H-isoindole-1,3-dione], for which the “amount of TNF-α in the supernatant, Okadaic acid alone = 100%” value in assay [1] (compound 1 nM) was determined as 97%; in assay [1] (compound 10 nM), 55%; in assay [1] (compound 100 nM), 8%; in assay [1] (compound 0.3 μM) it was 2%. Besides, the “Amount of hemoglobin, value in parentheses (Control = 100)” value (“Amount of hemoglobin, value” for short) in assay [2] (setting [4]) is given as 78. Also, in assay [2] (setting [5]), the Amount of hemoglobin is 65.1 μg/gel. Also, the “amount of TNF-α in the supernatant, TPA alone = 100%” value (from here on “amount of TNF-α … TPA alone = 100%”) turned out to be 100% in assay [3] (compound 10 nM), 101% in assay [3] (compound 100 nM) and 97% in assay [3] (compound 0.3 μM).

For the molecule `CC(C)c1cccc(C(C)C)c1N1C(=O)c2c(F)c(F)c(F)c(F)c2C1=O` [Compound 203, N-(2,6-diisopropylphenyl)-4,5,6,7-tetra-fluoro-phthalimide], the “amount of TNF-α, Okadaic acid alone = 100%” value amounted to 100% in assay [1] (compound 1 nM); 93% in assay [1] (compound 3 nM); 75% in assay [1] (compound 10 nM); 42% in assay [1] (compound 30 nM); 0% in assay [1] (compound 100 nM). Besides, in assay [2] (1 mg/kg, experiment (a) (Table 15)), the “Amount of hemoglobin, value” value came out at 69. For the same molecule, the Amount of hemoglobin in assay [2] (1 mg/kg, experiment (a), Control 307.3 (Table 15)) came out at 211.4 μg/gel.

For `C[C@H](c1cccc2ccccc12)N1C(=O)c2c(F)c(F)c(F)c(F)c2C1=O` [Compound 50, (R)-2-(1-naphthylethyl)-4,5,6,7-tetrafluoro-1H-isoindole-1,3-dione], the “amount of TNF-α in the supernatant, Okadaic acid alone = 100%” value in assay [1] (compound 1 nM) is recorded as 100%; in assay [1] (compound 10 nM), 88%; in assay [1] (compound 100 nM) it was 43%; in assay [1] (compound 0.3 μM) it was 2%. Further, the “Amount of hemoglobin, value” value in assay [2] (setting [4]) came out at 79. Besides, the Amount of hemoglobin in assay [2] (setting [5]) was 65.4 μg/gel. Moreover, the “amount of TNF-α … TPA alone = 100%” value in assay [3] (compound 10 nM), in assay [3] (compound 100 nM) and in assay [3] (compound 0.3 μM) was 100% each time.

Consider `O=C1c2ccccc2C(=O)N1c1ccccc1` [Compound 201, N-phenylphthalimide], for which the “amount of TNF-α, Okadaic acid alone = 100%” value in assay [1] (compound 1 μM) is 100%; in assay [1] (compound 3 μM), 100%; in assay [1] (compound 10 μM), 82%; in assay [1] (compound 30 μM), 60%; in assay [1] (compound 100 μM) it was 41%.

Turning to `CC(C)c1cccc(C(C)C)c1N1C(=O)c2cc3ccccc3cc2C1=O` [Compound B-3, N-(2,6-diisopropylphenyl) 2,3-naphthalimide], the “Amount of TNF (%), TPA alone = 100%” value in assay [3] was 134%.

With `C[C@@H](C1CCCCC1)N1C(=O)c2c(F)c(F)c(F)c(F)c2C1=O` [Compound 68, (S)-2-(1-cyclohexylethyl)-4,5,6,7-tetrafluoro-1H-isoindole-1,3-dione], the “amount of TNF-α in the supernatant, Okadaic acid alone = 100%” value in assay [1] (compound 1 nM) was 102%; in assay [1] (compound 10 nM), 101%; in assay [1] (compound 100 nM) it was 96%; in assay [1] (compound 0.3 μM), 65%. The “amount of TNF-α … TPA alone = 100%” value is listed as 103% in assay [3] (compound 10 nM), 115% in assay [3] (compound 100 nM) and 124% in assay [3] (compound 0.3 μM).

`C[C@@H](c1cccc2ccccc12)N1C(=O)c2c(F)c(F)c(F)c(F)c2C1=O` [Compound 49, (S)-2-(1-naphthylethyl)-4,5,6,7-tetrafluoro-1H-isoindole-1,3-dione]: the “amount of TNF-α in the supernatant, Okadaic acid alone = 100%” value in assay [1] (compound 1 nM) came out at 100%; in assay [1] (compound 10 nM), 102%; in assay [1] (compound 100 nM), 100%; in assay [1] (compound 0.3 μM), 101%. In addition, the “amount of TNF-α … TPA alone = 100%” value is on record as 100% in assay [3] (compound 10 nM), 99% in assay [3] (compound 100 nM) and 101% in assay [3] (compound 0.3 μM).

`CC(C)c1cccc(C(C)C)c1N1C(=O)Cc2ccccc2C1=O` [Compound A-3, N-(2.6-diisopropylphenyl)-homophthalimide]: the “Amount of TNF (%), TPA alone = 100%” value in assay [3] amounted to 258%.

In the case of `CC(C)c1cccc(C(C)C)c1N1C(=O)c2ccccc2C1=O` [Compound 202, N-(2.6-diisopropylphenyl)-phthalimide], the “amount of TNF-α, Okadaic acid alone = 100%” value in assay [1] (compound 1 μM) amounted to 100%; in assay [1] (compound 3 μM) it was 80%; in assay [1] (compound 10 μM) it was 43%; in assay [1] (compound 30 μM), 20%; in assay [1] (compound 100 μM) it was 9%. Further, the “Amount of hemoglobin, value” value in assay [2] (10 mg/kg, experiment (a) (Table 15)) is listed as 77; in assay [2] (100 mg/kg, experiment (a) (Table 15)) it was 50. Besides, the Amount of hemoglobin came to 235.4 μg/gel in assay [2] (10 mg/kg, experiment (a), Control 307.3 (Table 15)) and 152.5 μg/gel in assay [2] (100 mg/kg, experiment (a), Control 307.3 (Table 15)).
